Laboratory results as given in article PMC3197605, “Expression, Purification and Characterization of Arginase from Helicobacter pylori in Its Apo Form” (PLoS ONE, 2011).
Like-named read-outs stand apart in the source and are kept apart here.

Biological target: T1, arginase (RocF) (Helicobacter pylori, UniProt O25949)
T1 construct: gene HP_1399; RocF with C-terminal His6 tag, apo form, expressed in E. coli BL21 (DE3)
Assay: colorimetric arginase assay (ninhydrin detection of L-ornithine), purified apo-RocF heat-activated with Co2+, pH […]
Type: biochemical

T1 sequence (O25949 entry or part of it): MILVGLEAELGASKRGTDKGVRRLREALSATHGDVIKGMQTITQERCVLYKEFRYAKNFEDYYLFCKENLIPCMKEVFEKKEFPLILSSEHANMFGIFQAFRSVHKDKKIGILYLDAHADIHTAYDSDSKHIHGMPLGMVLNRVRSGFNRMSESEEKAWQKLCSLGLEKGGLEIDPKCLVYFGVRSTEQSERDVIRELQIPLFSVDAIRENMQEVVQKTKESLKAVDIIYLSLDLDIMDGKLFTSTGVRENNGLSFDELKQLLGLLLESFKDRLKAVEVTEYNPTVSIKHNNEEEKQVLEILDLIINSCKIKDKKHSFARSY

IC50 (read-out: IC50) [µM] | SMILES | IC50 [µM]
500 | N=C(NO)NCC[C@H](N)C(=O)O [nor-NOHA] | 
 | N[C@@H](CSCCB(O)O)C(=O)O [BEC, S-(2-boronoethyl)-L-Cysteine] | 1000
